Results reported in US7970552B1, “Diagnostic system for selecting nutrition and pharmacological products for animals” (priority 2008, dated 2011).

System: cartilage cells of individual affected unhealthy dogs
Assay: Cartilage cells of affected dogs cultured in vitro with 0 or 60 mg/l curcumin or andrographolide for 6 hours, microarray fold change in gene expression
Assay type: cell-based, German Shepherd dogs
Settings: for Fold change of gene expression, mean: 60 mg/l vs 0, 6 hours; for Net effect of the NBC on fold change, mean: net of fold change in unhealthy dogs
Method: Total RNA of cells was extracted using phenol/guanidine HCI reagents (Trizol, Invitrogen). RNA quality integrity was analysed using the Agilent 2100 Bioanalyser (Agilent Technologies) of the sample. The samples determined to have no, or minimal, loss of integrity and thus were considered suitable for use in experiments. mRNA was amplified for each sample, starting with 500 ng total RNA using a commercially available kit (Ambion T7 MEGAscript high yield transcription kit, Ambion). The mRNA was quantified using a spectrophotometer. mRNA was directly reverse transcribed to cDNA from […] using the Superscript indirect cDNA labeling Core kit (Invitrogen, Milan, Italy).
Two micrograms of cDNA were labelled with Cyanine-3dCTP (Cy3) or Cyanine-5dCTP (Cy5) fluorochromes using the cDNA labeling purification module kit (Invitrogen, Milan, Italy). Samples were hybridised to a canine specific, whole genome 44k spot 60mer oligonucleotide (Agilent Technologies). The labelled cDNA was appropriately coupled and used for competitive hybridization on the same microarray at 42° C. for 16 h. Fluorescence incorporation was determined using a spectrophotometer. The relative intensity of labelled cDNA in was acquired with ScanArray LITE scanner (PerkinElmer Life Sciences, Inc).
Expression data were then exported into Excel 2007 and processed with SAM software; comparison between groups was achieved using paired student's t tests. […] Correction for multiple hypothesis testing was performed using the false discovery rate (FDR).
Searching within the nutrient data set for biologically active nutrients with anti-arthritic and anti-inflammatory properties identified curcumin and androgropholide as the appropriated compositions. The cartilage cells of individual affected unhealthy dogs were cultured in vitro with 0, or 60 mg/l of curcumin or androgropholide for 6 hours. At the end of the incubation, these cartilage cells from individual affected dogs were washed and used for RNA extraction. For the microarray analysis, co-hybridisation of the RNA from 0 and 60 mg/l was conducted, using the material and the methods described previously.
The table below reports the mean fold change in gene expression of two biologically active nutrients, namely curcumin and andrographolide. […] The dose to be added to the food or the nutrient composition is computed using literature data, which indicates a dose of 4 mg/kg body weight for either curcumin or andrographolide.

[1] = cartilage cells of affected dogs, 60 mg/l, 6 hours

C=C1CC[C@@H]2[C@](C)(CO)[C@H](O)CC[C@@]2(C)[C@@H]1C/C=C1/C(=O)OC[C@H]1O [Androgrpholide]
Fold change of gene expression, mean (gene ACTB): −1.0 | Net effect of the NBC on fold change, mean (gene ACTB, 60 mg/l, 6 hours): 2.8 | Fold change of gene expression, mean (gene ACTR3): 1.0 | Net effect of the NBC on fold change, mean (gene ACTR3, 60 mg/l, 6 hours): 1.3 | Fold change of gene expression, mean (gene ADK): 0.0 | Net effect of the NBC on fold change, mean (gene ADK, 60 mg/l, 6 hours): 3.6 | Fold change of gene expression, mean (gene ANKRD10): 0.0 | Net effect of the NBC on fold change, mean (gene ANKRD10, 60 mg/l, 6 hours): 5.2 | Fold change of gene expression, mean (gene CAV1): 0.0 | Net effect of the NBC on fold change, mean (gene CAV1, 60 mg/l, 6 hours): 4.8 | Fold change of gene expression, mean (gene CDH11): −1.0 | Net effect of the NBC on fold change, mean (gene CDH11, 60 mg/l, 6 hours): 5.9 | Fold change of gene expression, mean (gene COL3A1): −2.0 | Net effect of the NBC on fold change, mean (gene COL3A1, 60 mg/l, 6 hours): 7.5 | Fold change of gene expression, mean (gene COX1): 0.0 | Net effect of the NBC on fold change, mean (gene COX1, 60 mg/l, 6 hours): 0.8 | Fold change of gene expression, mean (gene COX2): 0.0 | Net effect of the NBC on fold change, mean (gene COX2, 60 mg/l, 6 hours): 23.0 | Fold change of gene expression, mean (gene IGFBP7): −2.0 | Net effect of the NBC on fold change, mean (gene IGFBP7, 60 mg/l, 6 hours): 1.7 | Fold change of gene expression, mean (gene IL2): −6.0 | Net effect of the NBC on fold change, mean (gene IL2, 60 mg/l, 6 hours): −3.0 | Fold change of gene expression, mean (gene MMP2): −5.0 | Net effect of the NBC on fold change, mean (gene MMP2, 60 mg/l, 6 hours): 5.0 | Fold change of gene expression, mean (gene NOS2): −6.0 | Net effect of the NBC on fold change, mean (gene NOS2, 60 mg/l, 6 hours): −5.8 | Fold change of gene expression, mean (gene PTGS-2): −5.0 | Net effect of the NBC on fold change, mean (gene PTGS-2, 60 mg/l, 6 hours): −3.8 | Fold change of gene expression, mean (gene SPARC): 0.0 | Net effect of the NBC on fold change, mean (gene SPARC, 60 mg/l, 6 hours): 6.3 | Fold change of gene expression, mean (gene STMN1): 0.0 | Net effect of the NBC on fold change, mean (gene STMN1, 60 mg/l, 6 hours): 6.2 | Fold change of gene expression, mean (gene TIMP1): 0.0 | Net effect of the NBC on fold change, mean (gene TIMP1, 60 mg/l, 6 hours): 6.2 | Fold change of gene expression, mean (gene TIMP2): 0.0 | Net effect of the NBC on fold change, mean (gene TIMP2, 60 mg/l, 6 hours): 2.0 | Fold change of gene expression, mean (gene TNF-a): −8.0 | Net effect of the NBC on fold change, mean (gene TNF-a, 60 mg/l, 6 hours): 2.0 | Fold change of gene expression, mean (gene TUBA): 0.0 | Net effect of the NBC on fold change, mean (gene TUBA, 60 mg/l, 6 hours): 4.7 | Fold change of gene expression, mean (gene TUBB): 0.0 | Net effect of the NBC on fold change, mean (gene TUBB, 60 mg/l, 6 hours): 4.8

C=C1CC[C@@H]2[C@](C)(CO)[C@H](O)CC[C@@]2(C)[C@@H]1C/C=C1/C(=O)OC[C@H]1O [andrographolide]
Anti-inflammatory activity [1]: possesses an anti-inflammatory activity | Match with the regulation of the genes up- or down-regulated in affected unhealthy cartilage cells [1]: does not exactly match the regulation of all the genes

COc1cc(/C=C/C(=O)CC(=O)/C=C/c2ccc(O)c(OC)c2)ccc1O [curcumin]
Match with the regulation of the genes up- or down-regulated in affected unhealthy cartilage cells [1]: completely satisfies these requirements
